# Source: PubChem BioAssay (NCI)
#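 Each compound was tested at five concentrations against cells in 96-well plates for 48 hours. GI50: concentration for 50% inhibition of growth. TGI: total growth inhibition.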
# Columns and labels:
# Assay in all cases: growth of human tumour cells (NCI), 48 h
# 786-0 renal = system: 786-0 renal
# A498 renal = system: A498 renal
# ACHN renal = system: ACHN renal
# BT-549 breast = system: BT-549 breast
# CAKI-1 renal = system: CAKI-1 renal
# COLO 205 colon = system: COLO 205 colon
# DU-145 prostate = system: DU-145 prostate
# HCC-2998 colon = system: HCC-2998 colon
# HCT-116 colon = system: HCT-116 colon
# HCT-15 colon = system: HCT-15 colon
# HL-60(TB) leukemia = system: HL-60(TB) leukemia
# HOP-62 NSCLC = system: HOP-62 NSCLC
# HOP-92 NSCLC = system: HOP-92 NSCLC
# HS 578T breast = system: HS 578T breast
# HT29 colon = system: HT29 colon
# IGROV1 ovarian = system: IGROV1 ovarian
# K-562 leukemia = system: K-562 leukemia
# KM12 colon = system: KM12 colon
# LOX IMVI melanoma = system: LOX IMVI melanoma
# M14 melanoma = system: M14 melanoma
# MALME-3M melanoma = system: MALME-3M melanoma
# MCF7 breast = system: MCF7 breast
# MDA-MB-231 breast = system: MDA-MB-231 breast
# MDA-MB-435 = system: MDA-MB-435
# NCI-H23 lung = system: NCI-H23 lung
# NCI-H460 lung = system: NCI-H460 lung
# NCI-H522 lung = system: NCI-H522 lung
# NCI/ADR-RES ovarian = system: NCI/ADR-RES ovarian
# OVCAR-3 ovarian = system: OVCAR-3 ovarian
# OVCAR-4 ovarian = system: OVCAR-4 ovarian
# OVCAR-5 ovarian = system: OVCAR-5 ovarian
# OVCAR-8 ovarian = system: OVCAR-8 ovarian
# PC-3 prostate = system: PC-3 prostate
# RXF 393 renal = system: RXF 393 renal
# SF-268 CNS = system: SF-268 CNS
# SF-295 CNS = system: SF-295 CNS
# SF-539 CNS = system: SF-539 CNS
# SK-MEL-2 melanoma = system: SK-MEL-2 melanoma
# SK-MEL-28 melanoma = system: SK-MEL-28 melanoma
# SK-OV-3 ovarian = system: SK-OV-3 ovarian
# SN12C renal = system: SN12C renal
# SNB-19 CNS = system: SNB-19 CNS
# SNB-75 CNS = system: SNB-75 CNS
# SR leukemia = system: SR leukemia
# SW-620 colon = system: SW-620 colon
# T-47D breast = system: T-47D breast
# TK-10 renal = system: TK-10 renal
# U251 CNS = system: U251 CNS
# UACC-257 melanoma = system: UACC-257 melanoma
# UACC-62 melanoma = system: UACC-62 melanoma
# UO-31 renal = system: UO-31 renal
smiles,measurement,setting,value
NCCCOc1cc2ccccc2cc1C(=O)NCCOc1nc2ccccc2cc1C(=O)Nc1ccc(Cl)cc1O,GI50,786-0 renal,1170 nM
same,TGI,786-0 renal,2490 nM
same,GI50,A498 renal,342 nM
same,TGI,A498 renal,3450 nM
same,GI50,ACHN renal,1070 nM
same,TGI,ACHN renal,2300 nM
same,GI50,BT-549 breast,1370 nM
same,TGI,BT-549 breast,3030 nM
same,GI50,CAKI-1 renal,1330 nM
same,TGI,CAKI-1 renal,2930 nM
same,GI50,COLO 205 colon,1100 nM
same,TGI,COLO 205 colon,2380 nM
same,GI50,DU-145 prostate,1340 nM
same,TGI,DU-145 prostate,2670 nM
same,GI50,HCC-2998 colon,1670 nM
same,TGI,HCC-2998 colon,3180 nM
same,GI50,HCT-116 colon,252 nM
same,TGI,HCT-116 colon,2170 nM
same,GI50,HCT-15 colon,818 nM
same,TGI,HCT-15 colon,2110 nM
same,GI50,HL-60(TB) leukemia,621 nM
same,TGI,HL-60(TB) leukemia,2370 nM
same,GI50,HOP-62 NSCLC,721 nM
same,TGI,HOP-62 NSCLC,2370 nM
same,GI50,HOP-92 NSCLC,126 nM
same,TGI,HOP-92 NSCLC,1320 nM
same,GI50,HS 578T breast,1630 nM
same,TGI,HS 578T breast,3890 nM
same,GI50,HT29 colon,1500 nM
same,TGI,HT29 colon,3120 nM
same,GI50,IGROV1 ovarian,1220 nM
same,TGI,IGROV1 ovarian,2800 nM
same,GI50,K-562 leukemia,544 nM
same,TGI,K-562 leukemia,3300 nM
same,GI50,KM12 colon,1050 nM
same,TGI,KM12 colon,2400 nM
same,GI50,LOX IMVI melanoma,1070 nM
same,TGI,LOX IMVI melanoma,2390 nM
same,GI50,M14 melanoma,1310 nM
same,TGI,M14 melanoma,2750 nM
same,GI50,MALME-3M melanoma,1280 nM
same,TGI,MALME-3M melanoma,2790 nM
same,GI50,MCF7 breast,295 nM
same,TGI,MCF7 breast,1920 nM
same,GI50,MDA-MB-231 breast,1170 nM
same,TGI,MDA-MB-231 breast,2460 nM
same,GI50,MDA-MB-435,1000 nM
same,TGI,MDA-MB-435,2370 nM
same,GI50,NCI-H23 lung,941 nM
same,TGI,NCI-H23 lung,2410 nM
same,GI50,NCI-H460 lung,482 nM
same,TGI,NCI-H460 lung,1870 nM
same,GI50,NCI-H522 lung,1340 nM
same,TGI,NCI-H522 lung,2840 nM
same,GI50,NCI/ADR-RES ovarian,1730 nM
same,TGI,NCI/ADR-RES ovarian,3350 nM
same,GI50,OVCAR-3 ovarian,882 nM
same,TGI,OVCAR-3 ovarian,2250 nM
same,GI50,OVCAR-4 ovarian,75.5 nM
same,TGI,OVCAR-4 ovarian,1820 nM
same,GI50,OVCAR-5 ovarian,1500 nM
same,TGI,OVCAR-5 ovarian,2830 nM
same,GI50,OVCAR-8 ovarian,1250 nM
same,TGI,OVCAR-8 ovarian,3100 nM
same,GI50,PC-3 prostate,269 nM
same,TGI,PC-3 prostate,1990 nM
same,GI50,RXF 393 renal,1530 nM
same,TGI,RXF 393 renal,3020 nM
same,GI50,SF-268 CNS,1120 nM
same,TGI,SF-268 CNS,2690 nM
same,GI50,SF-295 CNS,1060 nM
same,TGI,SF-295 CNS,2470 nM
same,GI50,SF-539 CNS,1120 nM
same,TGI,SF-539 CNS,2340 nM
same,GI50,SK-MEL-2 melanoma,1870 nM
same,TGI,SK-MEL-2 melanoma,3570 nM
same,GI50,SK-MEL-28 melanoma,1300 nM
same,TGI,SK-MEL-28 melanoma,2570 nM
same,GI50,SK-OV-3 ovarian,1340 nM
same,TGI,SK-OV-3 ovarian,2630 nM
same,GI50,SN12C renal,1330 nM
same,TGI,SN12C renal,2740 nM
same,GI50,SNB-19 CNS,1310 nM
same,TGI,SNB-19 CNS,2760 nM
same,GI50,SNB-75 CNS,1100 nM
same,TGI,SNB-75 CNS,2300 nM
same,GI50,SR leukemia,224 nM
same,TGI,SR leukemia,2110 nM
same,GI50,SW-620 colon,82.9 nM
same,TGI,SW-620 colon,2060 nM
same,GI50,T-47D breast,517 nM
same,TGI,T-47D breast,2390 nM
same,GI50,TK-10 renal,1300 nM
same,TGI,TK-10 renal,2760 nM
same,GI50,U251 CNS,1050 nM
same,TGI,U251 CNS,2410 nM
same,GI50,UACC-257 melanoma,678 nM
same,TGI,UACC-257 melanoma,2110 nM
same,GI50,UACC-62 melanoma,270 nM
same,TGI,UACC-62 melanoma,2030 nM
same,GI50,UO-31 renal,1190 nM
same,TGI,UO-31 renal,2820 nM
